{
  "source": "ChEMBL document CHEMBL6087446",
  "about": "“Hypoxia Activated Nitric Oxide Donor Compounds for the Prevention and Treatment of Myocardial Hypoxia-Induced Injury” (J Med Chem, 2025)",
  "key": {"[1]": {"test": "Induction of NO release in rat H9c2 cells at 10 uM by Griess reagent assay relative to control", "assay_type": "functional"}, "H9c2 [2]": {"test_system": "H9c2", "test": "Induction of NO release in rat H9c2 cells under hypoxia condition at 10 uM by Griess reagent assay relative to control", "assay_type": "functional"}, "H9c2 [3]": {"test_system": "H9c2", "test": "Prevention of hypoxia-induced decrease in ATP level in rat H9c2 cells at 10 uM […] (Rvb =- 19.6 nmol/mg)", "assay_type": "ADME, cell-based", "conditions": "h9c2, 10 µM"}, "Mus musculus [4]": {"test_system": "Mus musculus", "test": "Prevention of myocardial hypoxia injury in isoproterenol-induced male C57 mouse myocardial injury model assessed as heart weight ratio at 5 mg/kg, ip once daily for 3 consecutive days (reference value: 0.60%)", "assay_type": "functional", "conditions": "time 3 day"}, "[5]": {"test": "Toxicity in male C57 mouse assessed as adverse effect at 405 mg/kg, ip measured up to 14 days observation period", "assay_type": "organism-based", "conditions": "in vivo, 336 h, time < 14 day"}, "H9c2 [6]": {"test_system": "H9c2", "test": "Prevention of hypoxia-induced decrease cell viability of rat H9c2 cells at 10 uM by CCK8 assay", "assay_type": "functional, cell-based"}, "Mus musculus [7]": {"test_system": "Mus musculus", "test": "Prevention of myocardial hypoxia injury in isoproterenol-induced male C57 mouse myocardial injury model assessed as decrease in mTORC1 expression at 5 mg/kg, IG once daily for 3 consecutive days by immunohistochemistry", "assay_type": "functional, organism-based", "conditions": "time 3.0 day"}, "H9c2 [8]": {"test_system": "H9c2", "test": "Prevention of hypoxia-induced apoptosis in rat H9c2 cells assessed as decrease in early apoptosis by measuring reduced green fluorescence at 10 uM incubated for 4 hrs by confocal microscopy with Annexin V-FITC and propidium iodide (PI) double staining analysis", "assay_type": "functional, cell-based"}, "Mus musculus [9]": {"test_system": "Mus musculus", "test": "Prevention of myocardial hypoxia injury in isoproterenol-induced male C57 mouse myocardial injury model assessed as prevention of lamellar collagen fiber deposition at 5 mg/kg, ip once daily for 3 consecutive days by Masson staining based analysis", "assay_type": "functional, organism-based", "conditions": "time 3.0 day"}, "Mus musculus [10]": {"test_system": "Mus musculus", "test": "Prevention of myocardial hypoxia injury in isoproterenol-induced male C57 mouse myocardial injury model assessed as pathological myocardial change by measuring myocardial cell damage at 5 mg/kg, IG once daily for 3 consecutive days by hematoxylin and eosin staining based analysis", "assay_type": "functional, organism-based", "conditions": "time 3.0 day"}, "H9c2 [11]": {"test_system": "H9c2", "test": "Prevention of hypoxia-induced apoptosis in rat H9c2 cells assessed as decrease in late apoptosis and necrosis by measuring reduced red fluorescence at 10 uM incubated for 4 hrs by confocal microscopy with Annexin V-FITC and propidium iodide (PI) double staining analysis", "assay_type": "functional, cell-based"}, "Mus musculus [12]": {"test_system": "Mus musculus", "test": "Prevention of myocardial hypoxia injury in isoproterenol-induced male C57 mouse myocardial injury model assessed as prevention of lamellar collagen fiber deposition at 5 mg/kg, IG once daily for 3 consecutive days by Masson staining based analysis", "assay_type": "functional, organism-based", "conditions": "time 3.0 day"}, "Mus musculus [13]": {"test_system": "Mus musculus", "test": "Prevention of myocardial hypoxia injury in isoproterenol-induced male C57 mouse myocardial injury model assessed as decrease in myocardial size at 5 mg/kg, ip once daily for 3 consecutive days (reference value: 6.47 mm)", "assay_type": "functional", "conditions": "time 3 day"}, "Mus musculus [14]": {"test_system": "Mus musculus", "test": "Prevention of myocardial hypoxia injury in isoproterenol-induced male C57 mouse myocardial injury model assessed as decrease in ACE expression at 5 mg/kg, IG once daily for 3 consecutive days by immunohistochemistry", "assay_type": "functional, organism-based", "conditions": "time 3.0 day"}, "Mus musculus [15]": {"test_system": "Mus musculus", "test": "Prevention of myocardial hypoxia injury in isoproterenol-induced male C57 mouse myocardial injury model assessed as pathological myocardial change by cell damage at 5 mg/kg, ip once daily for 3 consecutive days by hematoxylin and eosin staining based analysis", "assay_type": "functional, organism-based", "conditions": "time 3.0 day"}, "H9c2 [16]": {"test_system": "H9c2", "test": "Induction of NO release in rat H9c2 cells under hypoxia condition at 10 uM measured for first 30 mins by Griess reagent assay relative to control", "assay_type": "functional", "conditions": "0.5 h"}, "Mus musculus [17]": {"test_system": "Mus musculus", "test": "Prevention of myocardial hypoxia injury in isoproterenol-induced male C57 mouse myocardial injury model assessed as decrease in heart weight ratio at 5 mg/kg, ip once daily for 3 consecutive days (reference value: 0.68%)", "assay_type": "functional", "parameters": "scale not given: the % may be the effect or the level left", "conditions": "time 3 day"}, "Mus musculus [18]": {"test_system": "Mus musculus", "test": "Prevention of myocardial hypoxia injury in isoproterenol-induced male C57 mouse myocardial injury model assessed as prevention of bundle collagen fiber deposition at 5 mg/kg, IG once daily for 3 consecutive days by Masson staining based analysis", "assay_type": "functional, organism-based", "conditions": "time 3.0 day"}},
  "note": "Activity calls are given as the source filed them. The calls are words filed in the database; no cut-off is given here.",
  "data": [
    {"smiles": "CN(N=O)c1ccc(OCc2c(Cl)cccc2[N+](=O)[O-])cc1", "values": [
      {"measurement": "Activity", "setting": "[1]", "result": "<5", "unit": "%"},
      {"measurement": "Activity", "setting": "H9c2 [2]", "result": "Active"}
    ]},
    {"smiles": "CN(N=O)c1ccc(OCc2ccc([N+](=O)[O-])cc2)cc1", "values": [
      {"measurement": "Activity", "setting": "[1]", "result": "<5", "unit": "%"},
      {"measurement": "Activity", "setting": "H9c2 [2]", "result": "Active"}
    ]},
    {"smiles": "Cc1cc(COc2ccc(N(C)N=O)cc2)ccc1[N+](=O)[O-]", "values": [
      {"measurement": "Activity", "setting": "[1]", "result": "<5", "unit": "%"}
    ]},
    {"smiles": "CN(N=O)c1ccc(OCc2ccc([N+](=O)[O-])cc2Cl)cc1", "values": [
      {"measurement": "Activity", "setting": "[1]", "result": "<5", "unit": "%"},
      {"measurement": "Activity", "setting": "H9c2 [2]", "result": "Active"}
    ]},
    {"smiles": "CN(N=O)c1ccc(OCc2ccc(Cl)cc2[N+](=O)[O-])cc1", "values": [
      {"measurement": "Activity", "setting": "[1]", "result": "<5", "unit": "%"}
    ]},
    {"smiles": "Cc1ccc([N+](=O)[O-])c(COc2ccc(N(C)N=O)cc2)c1", "values": [
      {"measurement": "Activity", "setting": "[1]", "result": "<5", "unit": "%"}
    ]},
    {"smiles": "Cc1cc([N+](=O)[O-])ccc1COc1ccc(N(C)N=O)cc1", "values": [
      {"measurement": "Activity", "setting": "[1]", "result": "<5", "unit": "%"},
      {"measurement": "Activity", "setting": "H9c2 [2]", "result": "Active"}
    ]},
    {"smiles": "Cc1ccc(COc2ccc(N(C)N=O)cc2)c([N+](=O)[O-])c1", "values": [
      {"measurement": "Activity", "setting": "[1]", "result": "<5", "unit": "%"}
    ]},
    {"smiles": "CN(N=O)c1ccc(OCc2cc(Cl)ccc2[N+](=O)[O-])cc1", "values": [
      {"measurement": "Activity", "setting": "[1]", "result": "<5", "unit": "%"}
    ]},
    {"smiles": "CN(N=O)c1ccc(OCc2ccccc2[N+](=O)[O-])cc1", "values": [
      {"measurement": "Activity", "setting": "[1]", "result": "<5", "unit": "%"},
      {"measurement": "Activity", "setting": "H9c2 [2]", "result": "Active"}
    ]},
    {"smiles": "CN(N=O)c1ccc(OCc2ccc(Br)cc2[N+](=O)[O-])cc1", "values": [
      {"measurement": "Activity", "setting": "[1]", "result": "<5", "unit": "%"}
    ]},
    {"smiles": "O=[N+]([O-])O[C@@H]1CO[C@H]2[C@@H]1OC[C@@H]2O", "note": "[ISOSORBIDE MONONITRATE]", "values": [
      {"measurement": "Activity", "setting": "H9c2 [3]", "result": 25.3, "unit": "nmol/mg"},
      {"measurement": "Activity", "setting": "Mus musculus [4]", "result": 0.55, "unit": "%"},
      {"measurement": "Activity", "setting": "[5]", "result": "Toxic"},
      {"measurement": "Activity", "setting": "H9c2 [6]", "result": "Active; Partially Restores Cell Viability"},
      {"measurement": "Activity", "setting": "Mus musculus [7]", "result": "Active"},
      {"measurement": "Activity", "setting": "H9c2 [8]", "result": "Active"},
      {"measurement": "Activity", "setting": "Mus musculus [9]", "result": "inactive"},
      {"measurement": "Activity", "setting": "Mus musculus [10]", "result": "inactive"},
      {"measurement": "Activity", "setting": "H9c2 [11]", "result": "Active; Reduced Red Fluorescence To Certain Extents"},
      {"measurement": "Activity", "setting": "Mus musculus [12]", "result": "Active; N6 More Efficacious Than Ismn"},
      {"measurement": "Activity", "setting": "Mus musculus [13]", "result": 3.93, "unit": "mm"},
      {"measurement": "Activity", "setting": "Mus musculus [14]", "result": "Active"},
      {"measurement": "Activity", "setting": "Mus musculus [15]", "result": "inactive"},
      {"measurement": "Activity", "setting": "H9c2 [16]", "result": "~30", "unit": "%"},
      {"measurement": "Activity", "setting": "Mus musculus [17]", "result": 0.61, "unit": "%"},
      {"measurement": "Activity", "setting": "Mus musculus [18]", "result": "Active; N6 More Efficacious Than Ismn"}
    ]}
  ]
}
